Molecular target: T1, hAHR (Homo sapiens, UniProt P35869)
T1 construct: expressed in transfected cells
T1 sequence (P35869 11-848): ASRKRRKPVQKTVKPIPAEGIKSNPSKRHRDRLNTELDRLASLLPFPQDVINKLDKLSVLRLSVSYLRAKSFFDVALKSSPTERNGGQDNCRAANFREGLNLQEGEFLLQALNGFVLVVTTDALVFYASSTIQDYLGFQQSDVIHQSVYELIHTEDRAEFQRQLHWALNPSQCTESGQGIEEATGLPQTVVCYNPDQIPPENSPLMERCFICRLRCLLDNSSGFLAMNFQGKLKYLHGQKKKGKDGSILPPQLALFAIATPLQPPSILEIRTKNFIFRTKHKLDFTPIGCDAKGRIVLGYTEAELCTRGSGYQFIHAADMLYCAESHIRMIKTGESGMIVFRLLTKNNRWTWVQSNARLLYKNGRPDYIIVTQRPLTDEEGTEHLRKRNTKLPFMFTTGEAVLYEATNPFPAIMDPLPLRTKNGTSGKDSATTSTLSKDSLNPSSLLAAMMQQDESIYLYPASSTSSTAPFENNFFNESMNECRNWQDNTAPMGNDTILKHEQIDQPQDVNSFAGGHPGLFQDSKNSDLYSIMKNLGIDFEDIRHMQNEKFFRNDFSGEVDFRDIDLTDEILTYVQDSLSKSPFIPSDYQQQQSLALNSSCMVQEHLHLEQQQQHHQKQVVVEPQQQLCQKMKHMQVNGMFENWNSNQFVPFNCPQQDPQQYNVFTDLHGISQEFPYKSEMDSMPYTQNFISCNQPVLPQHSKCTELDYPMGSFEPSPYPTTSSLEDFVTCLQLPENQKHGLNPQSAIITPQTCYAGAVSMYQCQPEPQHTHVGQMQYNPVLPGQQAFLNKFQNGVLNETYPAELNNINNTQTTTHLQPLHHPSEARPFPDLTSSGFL
Assay: hAHR nuclear translocation assay
Assay type: cell-based
Settings: Jump-In T-REx HEK293 cells expressing AhR-EGFP; 45 min incubation; ratio of EGFP intensity in nuclear over cytosol; 20-point curve
Protocol: Stable cell lines were established using Jump-In™ T-REx™ HEK293 Retargeting Kit (Life Technologies). hAhR cDNA was cloned into the pJTI R4 CMV-TO EGFP vector. The EGFP was cloned to the C-terminal of AHR to form AhR-EGFP chimera. The pJTI R4 CMV-TO AhR-EGFP vector was transfected using FuGENE® HD into Jump-In™ T-REx™ HEK293 cells. Transfected cells were selected using 2.5 mg/ml G418 for 10 to 14 days, then expanded, harvested, and suspended in freeze media (FBS with 8% DMSO) at 2×10^7 cells/mL, and aliquots were stored in liquid nitrogen. One day before the assay date, cells were thawed and resuspended in DMEM with 5% FBS in the presence of 1 μg/mL Doxycycline and plated into ploy-L-Lysine coated […]-384 ULTRA Microplates (Perkin Elmer) at 12,000 to 15,000 cells per well and incubated at 37° C. and 5% CO2 overnight. On the assay date, compound was serially diluted (1:2) into 384-well nunc plates with DMSO using acoustic dispensing (ECHO). The dose response was a 20-point curve. Compound was resuspended in 40 μL of DMEM plus 0.1% BSA. The culture media was damped and 25 μL of DMEM plus 0.1% BSA was added, then 25 μL of compound in DMEM plus 0.1% BSA was added into cell plates. Cells were incubated with compounds at 37° C. and 5% CO2 for 45 min.
The final DMSO concentration was 0.2%. The media was damped after 45 minutes incubation. The cells were fixed with 40 μL of cold MeOH (−20° C.) for 20 min. The MeOH was damped and 50 μL of DPBS containing 1 μg/mL Hochst was added into the cell plates. The intensity of EGFP was quantitated by using OPERA PHENIX® or Operetta™ high content image system (Perkin Elmer) with 20× Water Objective and five field per well. The ratio of EGFP fluorescent intensity in nuclear over cytosol was analyzed using a 4-parameter nonlinear logistic equation to determine the potency of AhR agonists.

SMILES | EC50
CC1CCc2c1c(O)c(C(=O)Nc1ncco1)c(=O)n2C (single isomer, unassigned) [Example 34, 4-Hydroxy-1,5-dimethyl-N-oxazol-2-yl-2-oxo-6,7-dihydro-5H-cyclopenta[b]pyridine-3-carboxamide] | 7.46 nM
CC1CCc2c1c(O)c(C(=O)Nc1ncco1)c(=O)n2C (single isomer, unassigned) [Example 35, 4-Hydroxy-1,5-dimethyl-N-oxazol-2-yl-2-oxo-6,7-dihydro-5H-cyclopenta[b]pyridine-3-carboxamide] | 4.42 nM
CC1CCc2c1c(O)c(C(=O)Nc1ccns1)c(=O)n2C (single isomer, unassigned) [Example 36, 4-Hydroxy-N-isothiazol-5-yl-1,5-dimethyl-2-oxo-6,7-dihydro-5H-cyclopenta[b]pyridine-3-carboxamide] | 2.78 nM
CC1CCc2c1c(O)c(C(=O)Nc1ccns1)c(=O)n2C (single isomer, unassigned) [Example 37, 4-Hydroxy-N-isothiazol-5-yl-1,5-dimethyl-2-oxo-6,7-dihydro-5H-cyclopenta[b]pyridine-3-carboxamide] | 1.97 nM
CC1CCc2c1c(O)c(C(=O)Nc1ccsn1)c(=O)n2C (single isomer, unassigned) [Example 38, 4-Hydroxy-N-isothiazol-3-yl-1,5-dimethyl-2-oxo-6,7-dihydro-5H-cyclopenta[b]pyridine-3-carboxamide] | 1.01 nM
CC1CCc2c1c(O)c(C(=O)Nc1ccsn1)c(=O)n2C (single isomer, unassigned) [Example 39, 4-Hydroxy-N-isothiazol-3-yl-1,5-dimethyl-2-oxo-6,7-dihydro-5H-cyclopenta[b]pyridine-3-carboxamide] | 0.378 nM
CC1CCc2c1c(O)c(C(=O)Nc1cnsc1)c(=O)n2C (single isomer, unassigned) [Example 40, 4-Hydroxy-N-isothiazol-4-yl-1,5-dimethyl-2-oxo-6,7-dihydro-5H-cyclopenta[b]pyridine-3-carboxamide] | 2.37 nM
CC1CCc2c1c(O)c(C(=O)Nc1cnsc1)c(=O)n2C (single isomer, unassigned) [Example 41, 4-Hydroxy-N-isothiazol-4-yl-1,5-dimethyl-2-oxo-6,7-dihydro-5H-cyclopenta[b]pyridine-3-carboxamide] | 2.65 nM
CC1CCc2c1cc(C(=O)NC1CCCC1)c(=O)n2C (single isomer, unassigned) [Example 60, N-Cyclopentyl-1,5-dimethyl-2-oxo-6,7-dihydro-5H-cyclopenta[b]pyridine-3-carboxamide] | 396 nM
CC1CCc2c1cc(C(=O)NC1CCCC1)c(=O)n2C (single isomer, unassigned) [Example 61, N-Cyclopentyl-1,5-dimethyl-2-oxo-6,7-dihydro-5H-cyclopenta[b]pyridine-3-carboxamide] | 42 nM
CC1CCc2c1cc(C(=O)Nc1nccs1)c(=O)n2C (single isomer, unassigned) [Example 62, 1,5-Dimethyl-2-oxo-N-thiazol-2-yl-6,7-dihydro-5H-cyclopenta[b]pyridine-3-carboxamide] | 1.84 nM
CC1Cc2c(O)c(C(=O)Nc3ncccn3)c(=O)n(C)c2C1 (single isomer, unassigned) [Example 83, 4-Hydroxy-1,6-dimethyl-2-oxo-N-pyrimidin-2-yl-6,7-dihydro-5H-cyclopenta[b]pyridine-3-carboxamide] | 233 nM
CC1Cc2c(O)c(C(=O)Nc3ncccn3)c(=O)n(C)c2C1 (single isomer, unassigned) [Example 84, 4-Hydroxy-1,6-dimethyl-2-oxo-N-pyrimidin-2-yl-6,7-dihydro-5H-cyclopenta[b]pyridine-3-carboxamide] | 8.67 nM
CC1CCc2c1c(O)c(C(=O)Nc1ncccn1)c(=O)n2C (single isomer, unassigned) [Example 85, 4-Hydroxy-1,5-dimethyl-2-oxo-N-pyrimidin-2-yl-6,7-dihydro-5H-cyclopenta[b]pyridine-3-carboxamide] | 4.1 nM
C[C@@H]1CCc2c1c(O)c(C(=O)Nc1ncccn1)c(=O)n2C (single isomer, unassigned) [Example 86, 4-Hydroxy-1,5-dimethyl-2-oxo-N-pyrimidin-2-yl-6,7-dihydro-5H-cyclopenta[b]pyridine-3-carboxamide] | 7.79 nM
CC1Cc2c(O)c(C(=O)Nc3ccccn3)c(=O)n(C)c2C1 (single isomer, unassigned) [Example 87, 4-Hydroxy-1,6-dimethyl-2-oxo-N-(2-pyridyl)-6,7-dihydro-5H-cyclopenta[b]pyridine-3-carboxamide] | 27.3 nM
CC1Cc2c(O)c(C(=O)Nc3ccccn3)c(=O)n(C)c2C1 (single isomer, unassigned) [Example 88, 4-Hydroxy-1,6-dimethyl-2-oxo-N-(2-pyridyl)-6,7-dihydro-5H-cyclopenta[b]pyridine-3-carboxamide] | 0.897 nM

Other lines, results leading:

EC50 | SMILES
2.44 nM | CC1CCc2c1cc(C(=O)Nc1ccc(F)cn1)c(=O)n2C (single isomer, unassigned) [Example 56, N-(5-Fluoro-2-pyridyl)-1,5-dimethyl-2-oxo-6,7-dihydro-5H-cyclopenta[b]pyridine-3-carboxamide]
1.83 nM | CC1CCc2c1cc(C(=O)Nc1ccc(F)cn1)c(=O)n2C (single isomer, unassigned) [Example 57, N-(5-Fluoro-2-pyridyl)-1,5-dimethyl-2-oxo-6,7-dihydro-5H-cyclopenta[b]pyridine-3-carboxamide]
3.59 nM | CC1CCc2c1cc(C(=O)Nc1ccc(C(F)(F)F)cn1)c(=O)n2C (single isomer, unassigned) [Example 58, 1,5-Dimethyl-2-oxo-N-[5-(trifluoromethyl)-2-pyridyl]-6,7-dihydro-5H-cyclopenta[b]pyridine-3-carboxamide]
3.59 nM | CC1CCc2c1cc(C(=O)Nc1ccc(C(F)(F)F)cn1)c(=O)n2C (single isomer, unassigned) [Example 59, 1,5-Dimethyl-2-oxo-N-[5-(trifluoromethyl)-2-pyridyl]-6,7-dihydro-5H-cyclopenta[b]pyridine-3-carboxamide]
2.55 nM | CC1CCc2c1cc(C(=O)Nc1nccs1)c(=O)n2C (single isomer, unassigned) [Example 63, 1,5-Dimethyl-2-oxo-N-thiazol-2-yl-6,7-dihydro-5H-cyclopenta[b]pyridine-3-carboxamide]
1.54 nM | CC1CCc2c1cc(C(=O)Nc1ncc(C(F)(F)F)cn1)c(=O)n2C (single isomer, unassigned) [Example 64, 1,5-Dimethyl-2-oxo-N-[5-(trifluoromethyl)pyrimidin-2-yl]-6,7-dihydro-5H-cyclopenta[b]pyridine-3-carboxamide]
1.22 nM | CC1CCc2c1cc(C(=O)Nc1ncc(C(F)(F)F)cn1)c(=O)n2C (single isomer, unassigned) [Example 65, 1,5-Dimethyl-2-oxo-N-[5-(trifluoromethyl)pyrimidin-2-yl]-6,7-dihydro-5H-cyclopenta[b]pyridine-3-carboxamide]
10.9 nM | CC1CCc2c1cc(C(=O)Nc1ncccn1)c(=O)n2C (single isomer, unassigned) [Example 80, 1,5-Dimethyl-2-oxo-N-pyrimidin-2-yl-6,7-dihydro-5H-cyclopenta[b]pyridine-3-carboxamide]
25.1 nM | CC1CCc2c1cc(C(=O)Nc1ncccn1)c(=O)n2C (single isomer, unassigned) [Example 82, 1,5-Dimethyl-2-oxo-N-pyrimidin-2-yl-6,7-dihydro-5H-cyclopenta[b]pyridine-3-carboxamide]
